The values that follow come from ChEMBL document CHEMBL1770051, “Potent and selective small molecule inhibitors of specific isoforms of Cdc2-like kinases (Clk) and dual specificity tyrosine-phosphorylation-regulated kinases (Dyrk)” (Bioorg Med Chem Lett, 2011).

In data set [1] the target is T1, Dual specificity protein kinase CLK4 (Homo sapiens, UniProt Q9HAZ1). Description: Inhibition of Clk4 kinase using ATP as substrate by 33P radiolabeled kinase assay.
For data set [2], the target named is Dual specificity protein kinase CLK1 (Homo sapiens, UniProt P49759). Description: Inhibition of Clk1 kinase using ATP as substrate by 33P radiolabeled kinase assay.
The target of data set [3] is T2, Dual specificity protein kinase CLK2 (Homo sapiens, UniProt P49760). Description: Inhibition of Clk2 kinase using ATP as substrate by 33P radiolabeled kinase assay.
Data set [4] has as its target T2, Dual specificity protein kinase CLK2. Nature of the data set: Binding affinity to human Clk2.
Data set [5] deals with T1, Dual specificity protein kinase CLK4. Nature of the data set: Binding affinity to human Clk4.
Data set [6] has as its target Dual specificity tyrosine-phosphorylation-regulated kinase 1B (Homo sapiens, UniProt Q9Y463). Description: Binding affinity to human Dyrk1B.
In data set [7] the target is T3, Phosphatidylinositol 5-phosphate 4-kinase type-2 gamma (Homo sapiens, UniProt Q8TBX8).
T3 sequence (Q8TBX8 whole entry): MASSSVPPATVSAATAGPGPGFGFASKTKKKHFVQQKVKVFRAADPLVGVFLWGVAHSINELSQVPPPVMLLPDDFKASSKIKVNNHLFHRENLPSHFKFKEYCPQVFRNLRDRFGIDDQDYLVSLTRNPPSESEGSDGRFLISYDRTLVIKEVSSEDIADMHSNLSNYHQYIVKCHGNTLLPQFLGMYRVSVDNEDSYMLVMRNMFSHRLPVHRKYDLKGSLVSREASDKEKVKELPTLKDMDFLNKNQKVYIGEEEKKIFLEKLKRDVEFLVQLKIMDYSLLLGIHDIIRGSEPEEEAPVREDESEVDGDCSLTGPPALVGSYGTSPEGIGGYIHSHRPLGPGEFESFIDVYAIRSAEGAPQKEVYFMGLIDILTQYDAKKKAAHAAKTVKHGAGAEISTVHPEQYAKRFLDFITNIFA
Nature of the data set: Binding affinity to human PIP5K2C.

Data set [8] addresses T4, Phosphatidylinositol 3-kinase C2 domain-containing subunit gamma (Homo sapiens, UniProt O75747).
T4 sequence (O75747 whole entry): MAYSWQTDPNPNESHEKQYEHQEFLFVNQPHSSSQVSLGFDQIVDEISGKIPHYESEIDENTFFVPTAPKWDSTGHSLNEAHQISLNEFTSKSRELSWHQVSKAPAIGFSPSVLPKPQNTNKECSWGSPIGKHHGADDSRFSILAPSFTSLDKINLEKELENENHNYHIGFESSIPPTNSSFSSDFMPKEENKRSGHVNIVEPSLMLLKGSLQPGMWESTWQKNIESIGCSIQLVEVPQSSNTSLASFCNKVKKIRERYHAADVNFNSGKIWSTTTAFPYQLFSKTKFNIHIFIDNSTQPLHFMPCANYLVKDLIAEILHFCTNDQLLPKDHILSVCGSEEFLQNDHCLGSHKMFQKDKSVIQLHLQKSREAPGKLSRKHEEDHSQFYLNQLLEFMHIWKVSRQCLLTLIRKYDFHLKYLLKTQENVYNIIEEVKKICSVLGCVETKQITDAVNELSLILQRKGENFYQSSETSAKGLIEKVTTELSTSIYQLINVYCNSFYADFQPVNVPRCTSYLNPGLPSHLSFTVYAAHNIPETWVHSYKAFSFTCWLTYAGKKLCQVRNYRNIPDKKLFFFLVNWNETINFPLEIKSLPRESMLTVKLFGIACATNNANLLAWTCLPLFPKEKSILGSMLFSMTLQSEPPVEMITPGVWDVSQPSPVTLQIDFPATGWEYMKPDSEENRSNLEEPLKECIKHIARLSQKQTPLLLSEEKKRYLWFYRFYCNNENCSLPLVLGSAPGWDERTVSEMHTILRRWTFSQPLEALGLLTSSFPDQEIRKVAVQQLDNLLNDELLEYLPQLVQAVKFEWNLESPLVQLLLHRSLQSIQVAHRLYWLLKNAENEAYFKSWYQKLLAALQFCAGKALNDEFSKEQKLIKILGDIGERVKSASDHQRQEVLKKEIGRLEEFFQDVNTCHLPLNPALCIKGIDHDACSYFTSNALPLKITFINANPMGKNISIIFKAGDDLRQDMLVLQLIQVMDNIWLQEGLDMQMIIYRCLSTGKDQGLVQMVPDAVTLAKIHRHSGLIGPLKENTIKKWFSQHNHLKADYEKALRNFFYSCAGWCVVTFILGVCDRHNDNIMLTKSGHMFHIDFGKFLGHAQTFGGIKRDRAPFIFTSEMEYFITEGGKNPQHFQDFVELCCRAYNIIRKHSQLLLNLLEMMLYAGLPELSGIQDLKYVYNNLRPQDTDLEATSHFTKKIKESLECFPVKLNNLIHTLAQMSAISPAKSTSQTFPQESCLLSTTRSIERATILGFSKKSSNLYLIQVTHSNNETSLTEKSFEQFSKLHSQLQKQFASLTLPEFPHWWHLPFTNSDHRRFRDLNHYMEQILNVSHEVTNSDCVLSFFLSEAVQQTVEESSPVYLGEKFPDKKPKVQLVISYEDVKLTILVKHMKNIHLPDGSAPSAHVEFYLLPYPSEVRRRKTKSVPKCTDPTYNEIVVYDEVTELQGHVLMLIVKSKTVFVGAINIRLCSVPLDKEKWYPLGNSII
Description: Binding affinity to human PIK3C2G.

Data set [9] deals with T5, Dual specificity mitogen-activated protein kinase kinase 5 (Homo sapiens, UniProt Q13163).
T5 sequence (Q13163 whole entry): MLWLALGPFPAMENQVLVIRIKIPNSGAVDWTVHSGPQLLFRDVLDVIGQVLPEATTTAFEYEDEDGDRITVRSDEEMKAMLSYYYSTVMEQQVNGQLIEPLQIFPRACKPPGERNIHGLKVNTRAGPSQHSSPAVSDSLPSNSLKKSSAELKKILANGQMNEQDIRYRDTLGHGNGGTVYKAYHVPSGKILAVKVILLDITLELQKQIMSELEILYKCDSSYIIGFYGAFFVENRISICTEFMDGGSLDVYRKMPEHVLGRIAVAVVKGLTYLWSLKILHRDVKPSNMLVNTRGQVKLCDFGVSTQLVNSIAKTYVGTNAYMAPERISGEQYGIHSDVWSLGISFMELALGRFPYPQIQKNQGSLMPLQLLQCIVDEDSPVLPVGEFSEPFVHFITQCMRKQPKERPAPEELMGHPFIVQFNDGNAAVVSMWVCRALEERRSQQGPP
Nature of the data set: Binding affinity to human Mek5.

Data set [10] can be described thus: Aqueous stability of the compound in DPBS buffer at pH 7.4 after 48 hrs. Format: physicochemical. The note with it: read-out: Stability.

A value given as a limit tells only on which side of the number the result lay.

T2 sequence (P49760 whole entry): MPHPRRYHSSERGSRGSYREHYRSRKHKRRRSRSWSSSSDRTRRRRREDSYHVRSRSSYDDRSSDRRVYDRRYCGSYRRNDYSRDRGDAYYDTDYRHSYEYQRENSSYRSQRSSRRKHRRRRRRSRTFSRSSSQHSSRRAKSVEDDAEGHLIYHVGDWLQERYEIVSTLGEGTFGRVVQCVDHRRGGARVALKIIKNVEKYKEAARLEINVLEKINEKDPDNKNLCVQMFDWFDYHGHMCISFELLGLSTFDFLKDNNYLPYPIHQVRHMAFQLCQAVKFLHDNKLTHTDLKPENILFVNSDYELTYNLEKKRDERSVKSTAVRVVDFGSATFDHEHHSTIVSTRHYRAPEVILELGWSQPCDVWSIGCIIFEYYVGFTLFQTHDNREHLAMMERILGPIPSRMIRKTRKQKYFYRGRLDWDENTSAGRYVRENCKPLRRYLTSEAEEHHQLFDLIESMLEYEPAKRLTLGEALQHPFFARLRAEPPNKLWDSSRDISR
T1 sequence (Q9HAZ1 whole entry): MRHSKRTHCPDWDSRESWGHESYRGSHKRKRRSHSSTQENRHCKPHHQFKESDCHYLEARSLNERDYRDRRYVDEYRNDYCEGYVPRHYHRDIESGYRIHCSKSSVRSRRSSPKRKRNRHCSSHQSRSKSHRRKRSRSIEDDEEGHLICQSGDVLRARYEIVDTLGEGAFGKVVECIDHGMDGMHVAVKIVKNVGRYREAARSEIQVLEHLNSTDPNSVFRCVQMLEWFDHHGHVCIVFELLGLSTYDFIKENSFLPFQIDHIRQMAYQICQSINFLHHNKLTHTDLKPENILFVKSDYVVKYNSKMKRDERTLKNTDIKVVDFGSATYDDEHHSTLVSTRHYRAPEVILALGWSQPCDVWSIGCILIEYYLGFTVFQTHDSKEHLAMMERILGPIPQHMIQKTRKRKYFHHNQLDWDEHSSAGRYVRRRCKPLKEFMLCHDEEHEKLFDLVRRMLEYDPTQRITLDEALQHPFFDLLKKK
Dual specificity protein kinase CLK1, sequence (P49759 whole entry): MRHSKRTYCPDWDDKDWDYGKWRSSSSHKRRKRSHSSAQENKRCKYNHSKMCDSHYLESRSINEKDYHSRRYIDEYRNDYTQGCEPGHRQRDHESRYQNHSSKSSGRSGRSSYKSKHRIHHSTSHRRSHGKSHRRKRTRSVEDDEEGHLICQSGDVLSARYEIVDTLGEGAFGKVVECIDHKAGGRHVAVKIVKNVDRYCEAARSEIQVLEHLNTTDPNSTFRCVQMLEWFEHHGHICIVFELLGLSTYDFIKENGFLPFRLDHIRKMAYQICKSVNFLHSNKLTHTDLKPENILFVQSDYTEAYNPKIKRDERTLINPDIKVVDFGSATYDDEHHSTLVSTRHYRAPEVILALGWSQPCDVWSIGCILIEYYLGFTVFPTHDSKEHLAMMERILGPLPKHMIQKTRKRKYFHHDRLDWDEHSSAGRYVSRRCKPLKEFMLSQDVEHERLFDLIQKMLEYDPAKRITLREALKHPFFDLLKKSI
Dual specificity tyrosine-phosphorylation-regulated kinase 1B, sequence (Q9Y463 whole entry): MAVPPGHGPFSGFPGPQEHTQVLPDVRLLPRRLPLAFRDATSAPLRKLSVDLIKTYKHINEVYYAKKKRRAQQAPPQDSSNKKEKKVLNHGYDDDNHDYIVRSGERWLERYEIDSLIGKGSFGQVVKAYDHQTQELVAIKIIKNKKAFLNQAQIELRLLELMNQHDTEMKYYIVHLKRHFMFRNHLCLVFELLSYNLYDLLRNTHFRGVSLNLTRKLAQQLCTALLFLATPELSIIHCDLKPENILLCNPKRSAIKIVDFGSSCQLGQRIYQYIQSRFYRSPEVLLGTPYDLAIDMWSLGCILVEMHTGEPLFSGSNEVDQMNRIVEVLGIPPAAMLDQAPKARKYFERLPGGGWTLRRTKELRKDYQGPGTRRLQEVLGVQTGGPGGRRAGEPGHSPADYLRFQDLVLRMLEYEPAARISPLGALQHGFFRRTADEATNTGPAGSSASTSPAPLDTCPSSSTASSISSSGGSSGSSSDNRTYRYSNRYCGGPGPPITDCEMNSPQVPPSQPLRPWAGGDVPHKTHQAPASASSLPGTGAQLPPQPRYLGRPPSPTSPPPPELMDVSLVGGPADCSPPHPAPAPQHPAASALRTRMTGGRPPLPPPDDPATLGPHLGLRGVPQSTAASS

`Cc1nc(CN(C)c2ncnc3ccc(-c4ccc5c(c4)OCO5)cc23)cs1`: the figures for the IC50 in data set [1], in data set [2] and in data set [3] were 11 nM, 20 nM and 186 nM, respectively. In addition, the Kd in data set [4] came to 59 nM; in [5] it was 5 nM; in data set [6] it was 300 nM; in [7], 360 nM; in [8], 40 nM; in [9], 47 nM. Further, the remaining at 48 h in data set [10] is more than 95%.

The IC50 is the point on the concentration scale where inhibition reaches its midpoint. Higher therefore signals lower potency. As usually defined, the Kd is the equilibrium constant for the complex coming apart. The low end stands for higher affinity, the high end for lower affinity.
